Reference: the NIST ThermoML archive (doi:10.1016/j.tca.2018.05.010)
Values joined by “and” are separate entries in the source; they are usually repeats but may differ in a detail not shown here. Identical values can stand only once. Numbers after ± are expanded uncertainties.

Tests used:
[1] = Crystal; for vapor or sublimation pressure: Transpiration method; for Normal melting temperature: DTA
[2] = Molar enthalpy of transition or fusion; conditions: Crystal; DSC

| SMILES | vapor or sublimation pressure ([1]; 362.7 K) [kPa] | vapor or sublimation pressure ([1]; 367.8 K) [kPa] | vapor or sublimation pressure ([1]; 373 K) [kPa] | vapor or sublimation pressure ([1]; 378 K) | vapor or sublimation pressure ([1]; 383 K) | vapor or sublimation pressure ([1]; 388 K) [kPa] | vapor or sublimation pressure ([1]; 392.7 K) [kPa] | Normal melting temperature [1] [°C] | Molar enthalpy of transition or fusion [2] [kcal/mol] | vapor or sublimation pressure ([1]; 352.9 K) [kPa] | vapor or sublimation pressure ([1]; 358.2 K) [kPa] | vapor or sublimation pressure ([1]; 362.9 K) [kPa] | vapor or sublimation pressure ([1]; 373.2 K) [kPa] | vapor or sublimation pressure ([1]; 387.9 K) [kPa] |
| --- | --- | --- | --- | --- | --- | --- | --- | --- | --- | --- | --- | --- | --- | --- |
| O=C(O)[C@@H](O)c1ccccc1 [(S)-2-hydroxy-2-phenylacetic acid] | 0.0016 ± 0.00062 | 0.00264 ± 0.001 | 0.00431 ± 0.0016 | 0.00647 ± 0.0026 kPa | 0.0109 ± 0.0042 kPa and 0.0107 ± 0.0041 kPa | 0.0164 ± 0.0061 | 0.0241 ± 0.0088 | 134.6 ± 1.1 | 5.93 ± 0.143 | – | – | – | – | – |
| O=C(O)C(O)c1ccccc1 (stereo not drawn) [mandelic acid] | – | 0.00284 ± 0.0011 | – | 0.0076 ± 0.003 kPa and 0.00771 ± 0.0031 kPa | – | – | – | 121.2 ± 1.1 | 6 ± 0.167 | 0.00068 ± 0.0003 | 0.00116 ± 0.00048 | 0.00193 ± 0.00074 | 0.0051 ± 0.0022 | 0.0179 ± 0.0067 |
